Structures are written as SMILES.

For the first experiment, the target named is T1, P2X7 receptor (Homo sapiens, UniProt Q99572).
T1 construct: host or cells: SH-SY5Y
T1 sequence (Q99572 1-595): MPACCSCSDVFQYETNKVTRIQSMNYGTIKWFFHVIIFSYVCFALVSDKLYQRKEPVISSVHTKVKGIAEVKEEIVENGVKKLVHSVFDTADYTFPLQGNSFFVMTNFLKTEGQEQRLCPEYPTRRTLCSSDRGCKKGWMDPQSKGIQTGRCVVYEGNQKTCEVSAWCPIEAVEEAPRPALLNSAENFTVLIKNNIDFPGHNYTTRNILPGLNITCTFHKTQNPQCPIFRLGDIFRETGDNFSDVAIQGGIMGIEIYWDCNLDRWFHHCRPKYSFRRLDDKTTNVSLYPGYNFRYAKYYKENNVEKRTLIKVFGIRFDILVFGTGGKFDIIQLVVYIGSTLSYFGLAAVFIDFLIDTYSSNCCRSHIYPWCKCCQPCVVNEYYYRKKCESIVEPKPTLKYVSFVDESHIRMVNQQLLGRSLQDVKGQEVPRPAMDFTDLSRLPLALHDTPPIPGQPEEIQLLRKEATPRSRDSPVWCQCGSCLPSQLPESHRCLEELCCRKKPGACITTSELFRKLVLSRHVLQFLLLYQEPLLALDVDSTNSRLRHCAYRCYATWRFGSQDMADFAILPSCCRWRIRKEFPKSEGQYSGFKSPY
The experiment in a line: P2X7 calcium mobilization assay, high throughput, antagonist activity (Example 4A). The format is cell-based. To be noted: 50% decrease in the fluorescence response of cells exposed to 80 μM 2′(3′)-O-(4-benzoyl-benzoyl)adenosine 5′-triphosphate; Example 4A; read-out: IC50. Here is the method:
One day prior to the experiment, cells are plated at a density of 100,000 cells/well in a 96 well black/clear TC plate (Corning® Costar®, Sigma-Aldrich Co., St. Louis, Mo.). […] After one hour dye incubation, wells are rinsed once with 50 μL assay solution, and are then incubated for an hour at room temperature with 100 μL assay solution containing the test compound. […] After the one hour incubation, plates are transferred to a FLIPR^TETRA instrument (Molecular Devices, Sunnyvale, Calif.) for calcium mobilization analysis.
First, the average maximum relative fluorescent unit (RFU) response from the negative control wells (no agonist) is subtracted from the maximum response detected for each of the other experimental wells. Second, average maximum RFU response is calculated for the positive control wells (agonist wells).
A general note: A change in cytosolic calcium serves as a functional read-out for many receptors and channels.
Usually IC50 stands for the point on the concentration scale where inhibition reaches its midpoint. Turning to `CN(C(=O)c1cn2c(C(=O)NCC34CC5CC(CC(C5)C3)C4)cccc2n1)C1CCNCC1` [Compound 606, 5-N-(adamantan-1-ylmethyl)-2-N-methyl-2-N-piperidin-4-ylimidazo[1,2-a]pyridine-2,5-dicarboxamide], the IC50 was below 2 µM.
On the same count and under the same terms, in the case of `CC(=O)NC1CCN(C(=O)c2cn3c(C(=O)NC[C@@H]4CC[C@H]5C[C@@H]4C5(C)C)cccc3n2)C1` (stereo partly drawn) [Compound 457, 2-[(3-acetamidopyrrolidin-1-yl)carbonyl]-N-{[(1S,2R,5S)-6,6-dimethylbicyclo[3.1.1]hept-2-yl]methyl}imidazo[1,2-a]pyridine-5-carboxamide] it was below 2 µM; in that of `COC(=O)CN(C)C(=O)c1cn2c(C(=O)NC[C@@H]3CC[C@H]4C[C@@H]3C4(C)C)cccc2n1` [Compound 481, methyl N-{[5-({[(1S,2R,5S)-6,6-dimethylbicyclo[3.1.1]hept-2-yl]methyl}carbamoyl)imidazo[1,2-a]pyridin-2-yl]carbonyl}-N-methylglycinate], below 2 µM.

Staying with this experiment, now noted: 50% decrease in the fluorescence response of cells exposed to 80 μM of 2′(3′)-O-(4-benzoyl-benzoyl)adenosine 5′-triphosphate; Example 4A; read-out: IC50.
With `COCCCN(C(=O)c1cn2c(C(=O)NCC34CC5CC(CC(C5)C3)C4)cccc2n1)C1CCNCC1` [Compound 619, 5-N-(adamantan-1-ylmethyl)-2-N-(3-methoxypropyl)-2-N-piperidin-4-ylimidazo[1,2-a]pyridine-2,5-dicarboxamide], the IC50 is below 2 µM.
The same measure, in the same setting: under `CCOC(=O)C(CC(=O)N(C)C)c1cn2c(C(=O)NCC34CC5CC(CC(C5)C3)C4)cccc2n1` (centres unmarked) [Compound 809, ethyl 2-{5-[(adamantan-1-ylmethyl)carbamoyl]imidazo[1,2-a]pyridin-2-yl}-4-(dimethylamino)-4-oxobutanoate] stands below 2 µM.
For the compound `O=C(NCC12CC3CC(CC(C3)C1)C2)c1cccc2nc(C(=O)N3CCCN(C4CCC4)CC3)cn12` [Compound 714, N-(adamantan-1-ylmethyl)-2-[(4-cyclobutyl-1,4-diazepan-1-yl)carbonyl]imidazo[1,2-a]pyridine-5-carboxamide], the IC50 was below 2 µM.
The same measure, in the same setting: in the case of `O=C(NC1CCNCC1)c1cn2c(C(=O)NCC34CC5CC(CC(C5)C3)C4)cccc2n1` [Compound 637, 5-N-(adamantan-1-ylmethyl)-2-N-piperidin-4-ylimidazo[1,2-a]pyridine-2,5-dicarboxamide] it was below 2 µM.

Still in this experiment, the particulars now being: 50% decrease in the fluorescence response of cells exposed to 80 μM of 2′(3′)-O-(4-benzoyl-benzoyl)adenosine 5′-triphosphate; determined as in Example 4A; read-out: IC50.
Turning to `O=C(NCC1(c2cccnc2)CCCCC1)c1cccc2nc(Cn3nnc(CCO)n3)cn12` [Compound 921, 2-{[5-(2-hydroxyethyl)-2H-tetrazol-2-yl]methyl}-N-[(1-pyridin-3-ylcyclohexyl)methyl] imidazo[1,2-a] pyridine-5-carboxamide], the IC50 was below 2 µM.
Still for that read-out and setting: under `COC1CCN(C(=O)Cc2cn3c(C(=O)NCC4(c5cccnc5)CCCCC4)cccc3n2)CC1` [Compound 897, 2-[2-(4-methoxypiperidin-1-yl)-2-oxoethyl]-N-[(1-pyridin-3-ylcyclohexyl)methyl] imidazo[1,2-a] pyridine-5-carboxamide] stands below 2 µM; under `O=C(Cc1cn2c(C(=O)NCC3CCCCC3)cccc2n1)NCC1(c2ccc(Cl)cc2)CCCCC1` [Compound 978, 2-[2-({[1-(4-chlorophenyl)cyclohexyl]methyl}amino)-2-oxoethyl]-N-(cyclohexylmethyl) imidazo[1,2-a] pyridine-5-carboxamide], below 2 µM.
On the same count and under the same terms, in the case of `CCOC(=O)C(Cc1ccc(Cl)cc1)c1cn2c(C(=O)NCC(CC(C)C)c3ccc(Cl)cc3)cccc2n1` (centres unmarked) [Compound 932, ethyl 3-(4-chlorophenyl)-2-(5-{[2-(4-chlorophenyl)-4-methylpentyl]carbamoyl}imidazo [1,2-a]pyridin-2-yl)propanoate] it was below 2 µM; in that of `CC(C)(C)CCNC(=O)Cc1cn2c(C(=O)NCC3(c4ccc(Cl)cc4)CCCCC3)cccc2n1` [Compound 871, N-{[1-(4-chlorophenyl)cyclohexyl]methyl}-2-{2-[(3,3-dimethylbutyl)amino]-2-oxoethyl} imidazo[1,2-a] pyridine-5-carboxamide], below 2 µM.

Still in this experiment, the particulars now being: P2X7 calcium mobilization, Example 4A; 50% decrease in the fluorescence response of cells exposed to 80 μM of (2′(3′)-O-(4-benzoyl-benzoyl)adenosine 5′-triphosephate); read-out: IC50.
With `CCN(Cc1cn2c(C(=O)NCC34CC5CC(CC(C5)C3)C4)cccc2n1)C(=O)OC(C)OC(C)=O` (centres unmarked) [Compound 1059, 1-{[({5-[(adamantan-1-ylmethyl)carbamoyl]imidazo [1,2-a]pyridin-2-yl}methyl)(ethyl)carbamoyl]oxy} ethyl acetate], the IC50 is below 2 µM.
With `O=C(NCC(c1ccc(Cl)cc1)N1CCCCC1)c1cccc2ncc(Cl)n12` (centres unmarked) [Compound 1054, 3-chloro-N-[2-(4-chlorophenyl)-2-piperidin-1-ylethyl]imidazo[1,2-a]pyridine-5-carboxamide], the IC50 was below 2 µM.
On the same count and under the same terms, under `CC(C)CC(CNC(=O)c1cccc2nc(CCN3CCCC3)cn12)c1ccc(Cl)cc1` (centres unmarked) [Compound 1041, N-[2-(4-chlorophenyl)-4-methylpentyl]-2-(2-pyrrolidin-1-ylethyl) imidazo[1,2-a]pyridine-5-carboxamide] stands below 2 µM.

Still in this experiment, the particulars now being: SH-SY5Y cells; 50% decrease in fluorescence response to 80 μM BzATP; read-out: IC50.
For `Nc1nnnn1Cc1cn2c(C(=O)NCC34CC5CC(CC(C5)C3)C4)cccc2n1` [Compound 207, N-(adamantan-1-ylmethyl)-2-[(5-amino-1H-tetrazol-1-yl)methyl]imidazo[1,2-a]pyridine-5-carboxamide], the half-maximal inhibitory concentration (IC50) is below 2 µM.
The same measure, in the same setting: under `CC(O)CCNC(=O)c1cn2c(C(=O)NCC34CC5CC(CC(C5)C3)C4)cccc2n1` (centres unmarked) [Compound 84, 5-N-(adamantan-1-ylmethyl)--(3-hydroxy-butyl)imidazo[1,2-a]pyridine-2,5-dicarboxamide] stands below 2 µM; under `O=C(NCC12CC3CC(CC(C3)C1)C2)c1cccc2nccn12` [Compound 1, N-(adamantan-1-ylmethyl)imidazo[1,2-a]pyridine-5-carboxamide], below 2 µM; under `CCOC(=O)c1cn2c(NC(=O)CC34CC5CC(CC(C5)C3)C4)cccc2n1` [Compound 143, ethyl 5-[(adamantan-1-ylacetyl)amino]imidazo[1,2-a]pyridine-2-carboxylate], below 2 µM.
Still for that read-out and setting: under `CN(C)C(=O)CNC(=O)Cc1cn2c(C(=O)NCC34CC5CC(CC(C5)C3)C4)cccc2n1` [Compound 20, N-(adamantan-1-ylmethyl)-2-(2-{[2-(dimethylamino)-2-oxoethyl]amino}-2-oxoethyl)imidazo[1,2-a]pyridine-5-carboxamide] stands below 2 µM; under `CCC(O)CNC(=O)c1cn2c(C(=O)NCC34CC5CC(CC(C5)C3)C4)cccc2n1` (centres unmarked) [Compound 83, 5-N-(adamantan-1-ylmethyl)--(2-hydroxy-butyl)imidazo[1,2-a]pyridine-2,5-dicarboxamide], below 2 µM.
On the same count and under the same terms, in the case of `CCCOCCNC(=O)Cc1cn2c(C(=O)NCC34CC5CC(CC(C5)C3)C4)cccc2n1` [Compound 159, N-(adamantan-1-ylmethyl)-2-{2-oxo-2-[(2-propoxyethyl)amino]eth-yl}imidazo[1,2-a]pyridine-5-carboxamide] it was below 2 µM.
Regarding `CS(=O)(=O)N1CCN(C(=O)Cc2cn3c(C(=O)NCC45CC6CC(CC(C6)C4)C5)cccc3n2)CC1` [Compound 44, N-(adamantan-1-ylmethyl)-2-{2-[4-(methylsulfonyl)piperazin-1-yl]-2-oxoethyl}imidazo[1,2-a]pyridine-5-carboxamide], the IC50 was below 2 µM.

Still in this experiment, the particulars now being: fluorescence response of cells exposed to 80 μM 2′(3′)-O-(4-benzoyl-benzoyl)adenosine 5′-triphosphate; Example 4A; read-out: IC50.
In the case of `CC(C)CC(CNC(=O)c1cccc2nc(CC(=O)N3CCCC(C(F)(F)F)C3)cn12)c1ccccc1` (centres unmarked) [Compound 238, N-(4-methyl-2-phenylpentyl)-2-{2-oxo-2-[3-(trifluoromethyl)piperidin-1-yl]ethyl}imidazo [1,2-a]pyridine-5-carboxamide], the IC50 was below 2 µM.
Take `CCCN(C)C(=O)c1cn2c(NC(=O)CC34CC5CC(CC(C5)C3)C4)cccc2n1` [Compound 361, 5-[(adamantan-1-ylacetyl)amino]-N-methyl-N-propylimidazo[1,2-a]pyridine-2-carboxamide]: the IC50 is below 2 µM.
The same measure, in the same setting: in the case of `CC1(C)[C@H]2CC[C@@H](CNC(=O)c3cccc4nc(C(=O)N5CCCC5CN)cn34)[C@@H]1C2` (stereo partly drawn) [Compound 324, 2-{[2-(aminomethyl)pyrrolidin-1-yl]carbonyl}-N-{[(1S,2R,5S)-6,6-dimethylbicyclo[3.1.1]hept-2-yl]methyl}imidazo[1,2-a]pyridine-5-carboxamide] it was below 2 µM.
